Experimental data published in paper PMC8000495, “A New Anti-Estrogen Discovery Platform Identifies FDA-Approved Imidazole Anti-Fungal Drugs as Bioactive Compounds against ERα Expressing Breast Cancer Cells” (International Journal of Molecular Sciences, 2021).

Assays:
[1] = target: T1, estrogen receptor α (ERα) (Homo sapiens, UniProt P03372); assay: fluorescence polarization competitive binding, dose-response
T1 construct: gene ESR1
T1 sequence (P03372 1-595): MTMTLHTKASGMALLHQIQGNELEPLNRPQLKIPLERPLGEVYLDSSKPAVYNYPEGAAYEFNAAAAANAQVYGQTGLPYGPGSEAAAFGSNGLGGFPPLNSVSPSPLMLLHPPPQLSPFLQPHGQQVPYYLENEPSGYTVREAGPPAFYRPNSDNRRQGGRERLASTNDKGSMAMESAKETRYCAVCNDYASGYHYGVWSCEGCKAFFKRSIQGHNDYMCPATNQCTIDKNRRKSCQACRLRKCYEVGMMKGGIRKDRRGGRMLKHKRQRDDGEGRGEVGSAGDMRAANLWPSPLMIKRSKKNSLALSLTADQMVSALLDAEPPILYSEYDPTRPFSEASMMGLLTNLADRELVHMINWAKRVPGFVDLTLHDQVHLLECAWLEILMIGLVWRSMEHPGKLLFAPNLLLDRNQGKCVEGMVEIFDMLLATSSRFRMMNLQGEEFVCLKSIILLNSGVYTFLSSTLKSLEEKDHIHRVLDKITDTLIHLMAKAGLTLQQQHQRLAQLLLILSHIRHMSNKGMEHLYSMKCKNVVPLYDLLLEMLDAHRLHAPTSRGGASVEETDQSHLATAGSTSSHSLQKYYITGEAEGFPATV

[2] = target: T1, estrogen receptor α (ERα)

Clc1ccc(C(Cn2ccnc2)OCc2ccc(Sc3ccccc3)cc2)c(Cl)c1 (centres unmarked) [Fenti, fenticonazole]
IC50 [1]: ~14 µM

Oc1ccc(/C=C/c2cc(O)cc(O)c2)cc1 [resveratrol]
fluorescence polarization competitive binding screen, single dose 10^-4 M, Z* > [2]: we found well-known receptor ligands (e.g., estriol, resveratrol, genistein)
